In the NIST ThermoML archive (doi:10.1021/je025620p):
± gives the expanded uncertainty stated by the source.

Assay: isobaric coefficient of expansion
Settings: 303.15 K, Liquid

C1CCCCC1 [cyclohexane]
Settings	isobaric coefficient of expansion
500 kPa	0.00118 ± 2.9e-05 1/K
1000 kPa	0.00117 ± 2.9e-05 1/K
2000 kPa	0.00116 ± 2.8e-05 1/K
3000 kPa	0.00115 ± 2.8e-05 1/K
4000 kPa	0.00114 ± 2.8e-05 1/K
5000 kPa	0.00113 ± 2.8e-05 1/K
6000 kPa	0.00113 ± 2.8e-05 1/K
7000 kPa	0.00112 ± 2.7e-05 1/K
8000 kPa	0.00111 ± 2.7e-05 1/K
9000 kPa	0.0011 ± 2.7e-05 1/K
10000 kPa	0.00109 ± 2.7e-05 1/K
11000 kPa	0.00109 ± 2.7e-05 1/K
12000 kPa	0.00108 ± 2.6e-05 1/K
13000 kPa	0.00107 ± 2.6e-05 1/K
14000 kPa	0.00106 ± 2.6e-05 1/K
15000 kPa	0.00106 ± 2.6e-05 1/K
16000 kPa	0.00105 ± 2.6e-05 1/K
17000 kPa	0.00104 ± 2.6e-05 1/K
18000 kPa	0.00104 ± 2.5e-05 1/K
19000 kPa	0.00103 ± 2.5e-05 1/K
20000 kPa	0.00103 ± 2.5e-05 1/K
21000 kPa	0.00102 ± 2.5e-05 1/K
22000 kPa	0.00101 ± 2.5e-05 1/K
23000 kPa	0.00101 ± 2.5e-05 1/K
24000 kPa	0.001 ± 2.5e-05 1/K
25000 kPa	0.000994 ± 2.4e-05 1/K
26000 kPa	0.000988 ± 2.4e-05 1/K
27000 kPa	0.000985 ± 2.4e-05 1/K
28000 kPa	0.000977 ± 2.4e-05 1/K
29000 kPa	0.000975 ± 2.4e-05 1/K
30000 kPa	0.00097 ± 2.4e-05 1/K

CCCCCCC [heptane]
Settings	isobaric coefficient of expansion
500 kPa	0.00125 ± 3.1e-05 1/K
1000 kPa	0.00124 ± 3e-05 1/K
2000 kPa	0.00123 ± 3e-05 1/K
3000 kPa	0.00122 ± 3e-05 1/K
4000 kPa	0.00121 ± 3e-05 1/K
5000 kPa	0.00119 ± 2.9e-05 1/K
6000 kPa	0.00118 ± 2.9e-05 1/K
7000 kPa	0.00117 ± 2.9e-05 1/K
8000 kPa	0.00116 ± 2.8e-05 1/K
9000 kPa	0.00115 ± 2.8e-05 1/K
10000 kPa	0.00114 ± 2.8e-05 1/K
11000 kPa	0.00113 ± 2.8e-05 1/K
12000 kPa	0.00112 ± 2.7e-05 1/K
13000 kPa	0.00111 ± 2.7e-05 1/K
14000 kPa	0.0011 ± 2.7e-05 1/K
15000 kPa	0.00109 ± 2.7e-05 1/K
16000 kPa	0.00108 ± 2.7e-05 1/K
17000 kPa	0.00108 ± 2.6e-05 1/K
18000 kPa	0.00107 ± 2.6e-05 1/K
19000 kPa	0.00106 ± 2.6e-05 1/K
20000 kPa	0.00105 ± 2.6e-05 1/K
21000 kPa	0.00104 ± 2.6e-05 1/K
22000 kPa	0.00104 ± 2.5e-05 1/K
23000 kPa	0.00103 ± 2.5e-05 1/K
24000 kPa	0.00102 ± 2.5e-05 1/K
25000 kPa	0.00101 ± 2.5e-05 1/K
26000 kPa	0.00101 ± 2.5e-05 1/K
27000 kPa	0.001 ± 2.5e-05 1/K
28000 kPa	0.000995 ± 2.4e-05 1/K
29000 kPa	0.000988 ± 2.4e-05 1/K
30000 kPa	0.000983 ± 2.4e-05 1/K

CCCCCC [hexane]
Settings	isobaric coefficient of expansion
500 kPa	0.00135 ± 3.3e-05 1/K
1000 kPa	0.00135 ± 3.3e-05 1/K
2000 kPa	0.00133 ± 3.3e-05 1/K
2700 kPa	0.00132 ± 3.2e-05 1/K
4000 kPa	0.0013 ± 3.2e-05 1/K
4900 kPa	0.00129 ± 3.2e-05 1/K
6000 kPa	0.00126 ± 3.1e-05 1/K
7000 kPa	0.00125 ± 3.1e-05 1/K
8000 kPa	0.00124 ± 3e-05 1/K
9000 kPa	0.00122 ± 3e-05 1/K
10000 kPa	0.00121 ± 3e-05 1/K
11000 kPa	0.0012 ± 2.9e-05 1/K
12000 kPa	0.00119 ± 2.9e-05 1/K
13000 kPa	0.00118 ± 2.9e-05 1/K
14100 kPa	0.00116 ± 2.9e-05 1/K
14500 kPa	0.00116 ± 2.8e-05 1/K
16000 kPa	0.00115 ± 2.8e-05 1/K
17000 kPa	0.00114 ± 2.8e-05 1/K
18000 kPa	0.00113 ± 2.8e-05 1/K
19000 kPa	0.00112 ± 2.7e-05 1/K
20000 kPa	0.00111 ± 2.7e-05 1/K
21000 kPa	0.0011 ± 2.7e-05 1/K
22000 kPa	0.00109 ± 2.7e-05 1/K
23000 kPa	0.00108 ± 2.7e-05 1/K
24500 kPa	0.00107 ± 2.6e-05 1/K
25000 kPa	0.00107 ± 2.6e-05 1/K
26000 kPa	0.00106 ± 2.6e-05 1/K
27000 kPa	0.00105 ± 2.6e-05 1/K
28000 kPa	0.00104 ± 2.6e-05 1/K
29000 kPa	0.00104 ± 2.5e-05 1/K
30000 kPa	0.00103 ± 2.5e-05 1/K

Cc1ccccc1 [toluene]
Settings	isobaric coefficient of expansion
500 kPa	0.00104 ± 2.6e-05 1/K
1000 kPa	0.00104 ± 2.5e-05 1/K
2000 kPa	0.00103 ± 2.5e-05 1/K
3000 kPa	0.00103 ± 2.5e-05 1/K
4000 kPa	0.00102 ± 2.5e-05 1/K
5000 kPa	0.00101 ± 2.5e-05 1/K
6000 kPa	0.00101 ± 2.5e-05 1/K
7000 kPa	0.001 ± 2.5e-05 1/K
8000 kPa	0.000996 ± 2.4e-05 1/K
9000 kPa	0.00099 ± 2.4e-05 1/K
10000 kPa	0.000984 ± 2.4e-05 1/K
11000 kPa	0.000977 ± 2.4e-05 1/K
12000 kPa	0.000973 ± 2.4e-05 1/K
13000 kPa	0.000967 ± 2.4e-05 1/K
14000 kPa	0.000962 ± 2.4e-05 1/K
15000 kPa	0.000957 ± 2.3e-05 1/K
16000 kPa	0.000952 ± 2.3e-05 1/K
17000 kPa	0.000947 ± 2.3e-05 1/K
18000 kPa	0.000942 ± 2.3e-05 1/K
19000 kPa	0.000937 ± 2.3e-05 1/K
20000 kPa	0.000932 ± 2.3e-05 1/K
21000 kPa	0.000928 ± 2.3e-05 1/K
22000 kPa	0.000923 ± 2.3e-05 1/K
23000 kPa	0.000918 ± 2.2e-05 1/K
24000 kPa	0.000914 ± 2.2e-05 1/K
25000 kPa	0.000908 ± 2.2e-05 1/K
26000 kPa	0.000904 ± 2.2e-05 1/K
27000 kPa	0.000903 ± 2.2e-05 1/K
28000 kPa	0.000896 ± 2.2e-05 1/K
29000 kPa	0.000896 ± 2.2e-05 1/K
30000 kPa	0.000892 ± 2.2e-05 1/K
